# Source: patent US8598204B2, “1,2-dihydro-2-oxoquinoline compounds as 5-HT4 receptor ligands” (Suven Life Sciences Limited, priority 2009, dated 2013)
# How the values were obtained:
# [1] = test system: novel object recognition (cognition) in rats; assay: Object recognition task model; type: in vivo, rat; settings: 10 mg/kg p.o.; for Exploration time mean ± S.E.M, Familiar object / Exploration time mean ± S.E.M, Novel object: choice trial T2 24 hours after T1
# Experimental: The cognition-enhancing properties of compounds of this invention were estimated using a model of animal cognition: the object recognition task model.
# Male Wister rats (230-280 grams) obtained from N. I. N. (National Institute of Nutrition, Hyderabad, India) was used as experimental animals. Four animals were housed in each cage. Animals were kept on 20% food deprivation before one day and given water ad libitum throughout the experiment and maintained on a 12 hours light/dark cycle. Also the rats were habituated to individual arenas for 1 hour in the absence of any objects.
# One group of 12 rats received vehicle (1 mL/Kg) orally and another set of animals received compound of the formula (I) either orally or i.p., before one hour of the familiar (T1) and choice trial (T2).
# The experiment was carried out in a 50×50×50 cm open field made up of acrylic. In the familiarization phase (T1), the rats were placed individually in the open field for 3 minutes, in which two identical objects (plastic bottles, 12.5 cm height×5.5 cm diameter) covered in yellow masking tape alone (a1 and a2) were positioned in two adjacent corners, 10 cm. from the walls. After 24 hours of the (T1) trial for long-term memory test, the same rats were placed in the same arena as they were placed in (T1) trial. Choice phase (T2) rats were allowed to explore the open field for 3 minutes in presence of one familiar object (a3) and one novel object (b) (Amber color glass bottle, 12 cm high and 5 cm in diameter). Familiar objects presented similar textures, colors and sizes. During the T1 and T2 trial, explorations of each object (defined as sniffing, licking, chewing or having moving vibrissae whilst directing the nose towards the object at a distance of less than 1 cm) were recorded separately by stopwatch. Sitting on an object was not regarded as exploratory activity, however, it was rarely observed.
# T1 is the total time spent exploring the familiar objects (a 1+a2).
# T2 is the total time spent exploring the familiar object and novel object (a3+b).
# The object recognition test was performed as described by Ennaceur, A., Delacour, J., 1988, A new one-trial test for neurobiological studies of memory in rats—Behavioural data, Behav. Brain Res., 31, 47-59.
# [2] = target: T1, recombinant human 5-HT4 receptor (Homo sapiens, UniProt Q13639); assay: Determination of EC50 values for 5-HT4 receptor (CRE-luciferase reporter, CHO cells); type: cell-based; settings: stable CHO cell line expressing recombinant human 5-HT4 receptor and pCRE-Luc reporter; 4 hours incubation; luciferase activity
# T1 construct: expressed in transfected cells
# Experimental: A stable CHO cell line expressing recombinant human 5-HT4 receptor and pCRE-Luc reporter system was used for cell-based assay. The assay offers a non-radioactive based approach to determine binding of a compound to GPCRs. In this specific assay, the level of intracellular cyclic AMP which is modulated by activation or inhibition of the receptor is measured. The recombinant cells harbor luciferase reporter gene under the control of cAMP response element.
# The above cells were grown in 96 well clear bottom white plates in Hams F12 medium containing 10% fetal bovine serum (FBS). Prior to the addition of compounds or standard agonist, cells were serum starved overnight. Increasing concentrations of test compounds were added in OptiMEM medium to the cells. The incubation was continued at 37° C. in CO2 incubator for 4 hours. Medium was removed and cells were washed with phosphate buffered saline. The cells were lysed and luciferase activity was measured in a Luminometer. Luminescence units were plotted against the compound concentrations using Graphpad software. EC50 values of the compounds were defined as the concentration required in stimulating the luciferase activity by 50%.
# [3] = Rodent pharmacokinetic study; type: in vivo; settings: Wistar, rat, plasma, Wister/Male rats, 5 mg/kg; for bioavailability: Oral versus Intravenous; for AUC(0-t) / Cmax / Tmax / half-life: vehicle Water
# Experimental: Male Wister rats (230-280 grams) obtained from NIN (National Institute of Nutrition, Hyderabad, India) was used as an experimental animal. Three to five animals were housed in each cage. One day prior to dosing day, male wistar rats (225-250 grams) were anesthetized with isoflurane for surgical placement of jugular vein catheter. Animals were kept fasted over night and maintained on a 12 hours light/dark cycle. Three rats were dosed NCE (5 mg/Kg) orally and intravenously on day 0 and day 2.
# At each time point blood was collected by jugular vein. Plasma was stored frozen at −20° C. until analysis. The concentrations of the NCE compound in plasma were determined using LC-MS/MS method. Schedule time points: Pre dose 0.25, 0.5, 1, 1.5, 2, 3, 4, 6, 8, 10, 12 and 24 hours after dosing (n=3). The NCE compounds were quantified in plasma by validated LC-MS/MS method using solid phase extraction technique. NCE compounds were quantified in the calibration range of 2-2000 ng/mL in plasma. Study samples were analyzed using calibration samples in the batch and quality control samples spread across the batch.
# Pharmacokinetic parameters Cmax, Tmax, AUCt, T1/2 and Bioavailability were calculated by non-compartmental model using software WinNonlin version 5.0.1.
# [4] = Rodent brain penetration study; type: in vivo; settings: Wistar, rat; Wister/Male rats, 10 mg/kg, Oral, vehicle Water; brain/plasma; read-out: Steady State Brain Penetration (Cb/Cp)
# Experimental: Male Wister rats (230-280 grams) obtained from NIN (National Institute of Nutrition, Hyderabad, India) was used as an experimental animal. Three animals were housed in each cage. Animals were given water and food ad libitum throughout the experiment, and maintained on a 12 hours light/dark cycle.
# Brain penetration was determined in discrete manner in rats. One day prior to dosing day, male wistar rats (225-250 grams) were acclimatized. After acclimatization the rats were grouped according to the weight in each group, 3 animals were kept in individual cage and allowed free access to food and water. At each time point (0.5, 1, and 2 hours) n=3 animals were used.
# NCE compound was dissolved in water and administered orally at (free base) 10 mg/kg. Blood samples were removed via, cardiac puncture by using isofurane anesthesia the animals were sacrificed to collect brain tissue. Plasma was separated and Brain samples were homogenized and stored frozen at −20° C. until analysis. The concentrations of the NCE compound in plasma and Brain were determined using LC-MS/MS method.
# The NCE compounds were quantified in plasma and brain homogenate by validated LC-MS/MS method using solid phase extraction technique. NCE compounds were quantified in the calibration range of 1-500 ng/mL in plasma and brain homogenate. Study samples were analyzed using calibration samples in the batch and quality control samples spread across the batch. Extents of brain-blood ratio were calculated (Cb/Cp).
# T1 sequence (Q13639 whole entry): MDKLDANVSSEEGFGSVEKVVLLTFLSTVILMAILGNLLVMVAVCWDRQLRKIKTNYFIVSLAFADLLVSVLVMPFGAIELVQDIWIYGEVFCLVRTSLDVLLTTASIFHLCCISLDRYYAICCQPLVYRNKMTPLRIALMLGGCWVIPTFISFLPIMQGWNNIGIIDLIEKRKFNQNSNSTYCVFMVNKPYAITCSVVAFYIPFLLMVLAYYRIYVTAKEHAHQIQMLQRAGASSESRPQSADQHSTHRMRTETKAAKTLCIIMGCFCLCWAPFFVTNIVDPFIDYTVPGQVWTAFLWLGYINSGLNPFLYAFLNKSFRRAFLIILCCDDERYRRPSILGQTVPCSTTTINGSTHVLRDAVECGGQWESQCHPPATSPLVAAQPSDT
Compound,Inference [1],"Exploration time mean ± S.E.M, Familiar object [1] [s]","Exploration time mean ± S.E.M, Novel object [1] [s]",EC50 [2] [nM],bioavailability [3] [%],AUC(0-t) ([3]; Intravenous) [ng·h/mL],Cmax ([3]; Intravenous) [ng/mL],Tmax ([3]; Intravenous) [h],half-life ([3]; Intravenous) [h],AUC(0-t) ([3]; Oral) [ng·h/mL],Cmax ([3]; Oral) [ng/mL],Tmax ([3]; Oral) [h],half-life ([3]; Oral) [h],Kp [4]
"CC(C)n1c(=O)c(C(=O)NCCCN2C3CC4CC(C3)CC2C4)c(O)c2ccccc21.Cl [Example 1, N-[(2-Azatricyclo[3.3.1.1^3,7]dec-2-yl)propyl]-4-hydroxy-1-isopropyl-2-oxo-1,2-dihydroquinoline-3-carboxamide hydrochloride]",Active,7.87 ± 0.83,12.56 ± 1.31,230,26 ± 11,3020 ± 980,1170 ± 241,0.08,1.88 ± 1.15,801 ± 105,211 ± 32,0.83 ± 0.29,2.37 ± 0.6,0.2 ± 0.04
"CC(C)n1c(=O)c(C(=O)NCCCN2C3CC4CC2CC(O)(C4)C3)c(O)c2ccccc21 [Example 4, N-[(5-Hydroxy-2-azatricyclo[3.3.1.1^3,7]dec-2-yl)propyl]-4-hydroxy-1-isopropyl-2-oxo-1,2-dihydroquinoline-3-carboxamide]",Active,6.72 ± 1.92,11.86 ± 1.65,421,34 ± 6,1660 ± 498,803 ± 62,0.08,2.64 ± 0.89,547 ± 126,216 ± 78,0.33,1.8 ± 0.36,0.66 ± 0.1
